According to ChEMBL document CHEMBL3507680, “University of Dundee, Gates Library screen for HepG2 cell viability”:

Assay: Human HepG2 cell viability assay in 384 well format
Assay type: toxicity, cell-based
Parameters: dose 125 nL, time 70.5 hour; concentration not given beside the values
Details: HepG2 cells, read-out: Inhibition

| Structure (SMILES) | cytotoxicity at 70.5 h |
| --- | --- |
| CN(C)C1(CNc2nccc(C3CCCC3)n2)CCOCC1 | -4.46% |
| Cc1nc(O)c2c(n1)CCN(Cc1cc(C)sc1C)CC2 | 23.6% |
| CC(C)(C)NC(=O)NC(=O)CNc1c(F)cccc1N1CCCC1 | -5.38% |
| Cc1cnccc1CN(C)C1CCN(c2ncnc3[nH]cnc23)CC1 | -6.65% |
| Cn1ccnc1CN1CCCN(C(=O)c2ccc3ccccc3c2)CC1 | 1.95% |
| CN1CCOC(c2cncc(CCC(=O)N(C)C)n2)C1 (stereo not drawn) | -2.29% |
| O=C(c1ccc[nH]1)N1C[C@H](OCc2cccnc2)[C@H]2COC[C@H]21 | 5.01% |
| CN1CCCN(C(=O)c2ccc3c(c2)nc(N2CCOCC2)n3C)CC1 | -8.33% |
| CC1CCc2nc(O)c(C(=O)NCc3ccccn3)cc2C1 (stereo not drawn) | -5.86% |
| CCC(Nc1ccc(Oc2cccc(C#N)c2)cc1)C(N)=O (stereo not drawn) | -12.3% |
| CCCNC(=O)NC(=O)CN1CCN(Cc2nccn2CC)CC1 | -9.22% |
| CC(Cc1cncs1)Nc1ncnc2cccc(F)c12 (stereo not drawn) | 1.5% |
| Cc1nc(CNC(=O)CCN2CCN(c3ccccc3)CC2)oc1C | 2.07% |
| OCCNc1cc(-c2nccnc2N2CCCC2)c2cc[nH]c2n1 | 34% |
| Cc1nc(COC(=O)c2cccc3c2OCCO3)no1 | 23.5% |
| C[C@H]1C[C@H]2CN(Cc3ccccn3)CC[C@@H]2O1 | -3.43% |
| CCc1c(C)nc2n(c1=O)CC(C(=O)Nc1nccs1)CS2 (stereo not drawn) | 33.6% |
| COC(=O)c1ccc(Cn2nc(C)cc2C)cc1 | 12.9% |
| CCOc1ncccc1NC(=O)Nc1c(C)nn(C(C)C)c1C | -4.11% |
| CCOc1ncccc1NC(=O)N1CCN(Cc2ccncc2)CC1 | -4.21% |
| CN(C)Cc1nc(C(C)(C)NC(=O)c2nc3ccccc3s2)no1 | -7.47% |
| CCN(Cc1cccc(-c2ccncc2)c1)S(C)(=O)=O | -4.62% |
| Cc1ccc(F)c2c1N(C(=O)c1ccc(S(C)(=O)=O)cc1)CCC2 | -10.6% |

| Structure (SMILES) | cytotoxicity at 70.5 h |
| --- | --- |
| O=C(Cc1ccccn1)N1CCN(C(=O)CC2CCCCC2)CC1 | -2.98% |
| COCc1nc(C(=O)N2CCCC(n3ccnc3C(C)C)C2)cs1 (stereo not drawn) | -12.2% |
| CCCc1cnc(C)nc1N1CCC(F)(F)CC1 | -9.65% |
| CC(=O)NCCNC(=O)C1(N2CCCCC2)Cc2ccccc2C1 | -7.44% |
| Cc1cc(C(=O)NC2CCc3c(ccc(=O)n3CC3CC3)C2)no1 (stereo not drawn) | -6.82% |
| Cc1ncc(C(=O)N2CCCC(n3cccn3)C2)s1 (stereo not drawn) | -11.8% |
| CCCNS(=O)(=O)c1ccc(C(=O)NC(CC)c2cnn(C)c2)cc1 (stereo not drawn) | -4.79% |
| CNC(=O)CCC(=O)N1CCOC(c2ccc3cc(OC)ccc3c2)C1 (stereo not drawn) | -3.11% |
| N#Cc1cccc(S(=O)(=O)NC(=O)COC2CCCC2)c1 | 11.3% |
| COc1ccc(OCc2cc(C(=O)N3CCOCC3)n[nH]2)c(Cl)c1 | -2.87% |
| CCC1CN(c2ncnc3nc[nH]c23)CCO1 (stereo not drawn) | 11.7% |
| CC(Cn1cncn1)NC(=O)NCc1csc(N(C)C)n1 (stereo not drawn) | -8.98% |
| Cc1c(CNCC(C)Oc2cccnc2)c2ccccc2n1CC(N)=O (stereo not drawn) | 2.14% |
| CCC(NC(=O)C1CCN(S(C)(=O)=O)CC1)c1ccc(C)cc1C (stereo not drawn) | -4.73% |
| CCOc1ncccc1C(=O)Nc1c(C)cnn1CC1CC1 | -9.45% |
| Cn1ncc2c1CCCC2NCc1ccc(OCc2cccnc2)cc1 (stereo not drawn) | -14.4% |
| CN(Cc1cccc(F)c1)C(=O)CS(=O)(=O)Cc1c(Cl)cccc1Cl | 5.76% |
| O=C1COC2(CCN(Cc3ccncc3)CC2)CN1 | -11.9% |
| CC(C)C(=O)N1CCN(C(=O)c2cc(C(C)C)no2)[C@H]2CS(=O)(=O)C[C@H]21 | -0.523% |
| O=C(CNc1nc(C2CC2)ns1)N1CCc2sccc2C1 | -10.8% |
| COCCCN(Cc1cnc(-c2cccs2)nc1)C1CCN(C)CC1 | -12% |
| CCOc1ccc(Cl)cc1C(C(=O)O)N1CCOCC1 (stereo not drawn) | -4.12% |
| CN(Cc1ccccc1-n1cccn1)C[C@@H]1CCCN2CCCC[C@H]12 | -8.12% |

| Structure (SMILES) | cytotoxicity at 70.5 h |
| --- | --- |
| Cc1cc(=O)[nH]cc1C(=O)N1CCN(C)c2ccccc2C1 | -0.391% |
| NC(=O)CN(Cc1ncc(-c2ccccc2)o1)C1CCCC1 | -7.44% |
| CC(C)CC(=O)N1CC[C@H]2N(C)CC[C@@]2(C(=O)Nc2cccnc2)CC1 | -9.05% |
| Cc1nc(CN2CCN(CC(O)CN3CCOCC3)CC2)oc1C (stereo not drawn) | 8.53% |
| CC(NC(=O)CCn1cncn1)c1nnc2n1CCCCC2 (stereo not drawn) | -13.5% |
| CC(C)CC(=O)N1CC[C@@H]2[C@H](CC1)N(Cc1cccnc1)CCS2(=O)=O | 3.17% |
| COc1ccccc1C(=O)Nc1cc(CC(C)C)nn1C | -3.94% |
| N#Cc1ccc(C(=O)N2CC[C@H]3[C@@H]2CCC(=O)N3c2ccccc2)cc1 | -12% |
| FC(F)(F)c1ccc2nc([C@H]3CCN(C4CCOCC4)C3)[nH]c2c1 | -12.9% |
| CN(C)c1cc2c(nn1)CCN(C(=O)c1cc3c(s1)CCC3)C2 | 8.88% |
| CC(NCc1ccncc1)c1ccc(N2CCN(C)CC2)c(F)c1 (stereo not drawn) | 4.11% |
| Cn1nc(C2CNCCO2)cc1CCOc1ccc(Cl)cc1 (stereo not drawn) | 7.97% |
| Cc1nc(CCN)cc(N2CCCN(C(=O)c3ccco3)CC2)n1 | -4.43% |
| CCOCC1CN(S(=O)(=O)C2CC2)Cc2cnn(C)c21 (stereo not drawn) | 20% |
| Cc1cccc(CN2CCC3(CCC(CC(=O)N(C)C)CC3)CC2)n1 | -8.22% |
| Cc1cnn(C2CCCN(C(=O)c3cc[nH]n3)C2)c1 (stereo not drawn) | -5.43% |
| CO[C@H]1CN(c2ccccc2)S(=O)(=O)[C@@]12CCN(Cc1ccccc1)C2 | 19.1% |
| CC(C)(C)CN1CCCC12Cc1ccccc1CNC2=O (stereo not drawn) | -7.71% |
| O=C(Nc1cnccn1)[C@@H]1COC[C@H]2CN(c3ncc(F)cn3)C[C@H]21 | -4.35% |
| CC(C)NC(=O)COc1cccc(-c2nc(C(C)C)no2)c1 | 20.9% |
| CCCN(Cc1nccn1C)C(=O)c1cc(C)nc(C)n1 | -9.67% |
| Cn1nccc1CCC(=O)N1CCC(c2cnccn2)CC1 | -13.1% |
| Cn1nc2c(cc1=O)CN(Cc1nc(C3CC3)no1)CC2 | -8.63% |

| Structure (SMILES) | cytotoxicity at 70.5 h |
| --- | --- |
| CCOC(=O)[C@H]1CNC[C@H]1C(=O)OCC | -2.7% |
| Cc1cc(C)nc(N2CCC(NCCSc3nnnn3C)CC2)n1 | 11.2% |
| COc1c(CNCCc2c[nH]c3ccccc23)c(C(C)C)nn1C | 2.12% |
| NC(=O)C1CCCN1Cc1ccccc1NC(=O)Cc1cccc(F)c1 (stereo not drawn) | -0.431% |
| CCCc1nn(Cc2csc(CC)n2)c(=O)o1 | -4.3% |
| Cc1nn2c(N3CCS(=O)(=O)CC3)cc(-c3ccccc3)nc2c1C | 1.53% |
| CCOc1cc(F)ccc1NC(=O)N(C(C)CS(C)(=O)=O)C1CC1 (stereo not drawn) | -4.36% |
| Cc1cc(CN(CC(N)=O)CC(C)C)on1 | 18.1% |
| COc1ccc(CNC(=O)CCSCc2csc(C)n2)cn1 | -4.07% |
| COc1ccc([C@@H]2CN(C(=O)Cc3cccs3)C[C@H]2NC(C)=O)cc1 | -4.36% |
| O=C(NCCc1ccc(F)cc1)C1CN(C(=O)Cn2cncn2)C1 | -13.2% |
| CCn1c(C2CCCNC2)nn(Cc2ccc(C(=O)NC)o2)c1=O (stereo not drawn) | -3.04% |
| Cc1ccc(CNC(=O)CCN2CCN(c3ccccn3)CC2)n1C | 21.9% |
| CC(C)CC(=O)N[C@H](C)c1c(-c2ccc(Cl)cc2)noc1C(=O)O | -7.33% |
| CCn1cc(NC(=O)C2CCN(Cc3nc(C)c(C)o3)CC2)cn1 | -11.4% |
| Cc1c[nH]c(C2CCCN2C(=O)CCc2c(C)n[nH]c2C)n1 (stereo not drawn) | -11.3% |
| Cc1cc(N2CCC(NC(C)Cc3ccsc3)CC2)nc(C)n1 (stereo not drawn) | -2.86% |
| Cc1cnc(N2CC(C(=O)N3CCOCC3)C3(CCOCC3)C2)nc1 (stereo not drawn) | -3.59% |
| Cc1nn(C)c(Cl)c1C(=O)NCC(c1ccsc1)N(C)C (stereo not drawn) | -21.3% |
| O=C(c1ccc(-c2cnco2)cc1)N1CCC(Nc2cccnn2)CC1 | -4.21% |
| CC(=O)N1CCN(c2cc(CCNC(=O)C(C)C)nc(C3CC3)n2)CC1 | -7.84% |
| Cc1ccc(C(=O)N2CCc3c(CNS(C)(=O)=O)cncc3C2)o1 | 0.323% |
| Cc1ccc(S(=O)(=O)NCCc2ccoc2)s1 | -9.94% |

| Structure (SMILES) | cytotoxicity at 70.5 h |
| --- | --- |
| COC(=O)C1CCCCN1C(=O)c1ccc(N(C)C)cc1F (stereo not drawn) | 2.71% |
| c1ccc(CCCN2CCN(c3ccc4nncn4n3)CC2)cc1 | 0.863% |
| CN(CCNC(=O)c1scnc1Cl)c1ccccc1 | 2.36% |
| O=C(NC[C@H]1C[C@@H]2CCN1C[C@@H]2CN1CCOCC1)Nc1ccccc1 | -2.16% |
| CN(C)CCn1ccc(NC(=O)NC(C)(C)c2nccs2)n1 | -12.6% |
| O=C(c1ccnnc1)N1C[C@H](Oc2cccnc2)[C@H]2OCCC[C@H]21 | 3.85% |
| CSc1ccsc1C(=O)NS(=O)(=O)c1cnn(C)c1 | -15.6% |
| COCCCN1CC2(CCCN(c3ncnc4[nH]ccc34)C2)CCC1=O (stereo not drawn) | -6.33% |
| COc1ccc2[nH]cc(CCNC(=O)C3CCCN(C(C)=O)C3)c2c1 (stereo not drawn) | -9.73% |
| COc1ccccc1/C=C/CNCC1CCc2nncn2C1 (stereo not drawn) | 8.27% |
| COc1ccc(OCCNc2cccc(C(=O)N3CCOCC3)c2)cc1 | -3.69% |
| CC1CN(Cc2cccc(C#N)c2)CCN1c1ccc2nncn2n1 (stereo not drawn) | -5.84% |
| CN(C)S(=O)(=O)NCC(O)c1cc2ccccc2s1 (stereo not drawn) | 3.05% |
| O=C(c1cccnc1)N1CCOC(c2ccc(-c3cncnc3)cn2)C1 (stereo not drawn) | -0.513% |
| COc1ccc(CNCc2ccnc(N3CCOCC3)c2)cc1OC | -10.1% |
| O=C(NCc1ccco1)[C@@]12CCO[C@@H]1CCN(CC1CCOCC1)C2 | -1.64% |
| CN(c1ncccc1CNCc1ncc[nH]1)C1CCCCC1 | -13.1% |
| COc1cc(F)cc(CNC(=O)Nc2ccn(CC(F)F)n2)c1 | -2.34% |
| CN1CC(NC(=O)Nc2cnn(-c3ccccc3Cl)c2)CCC1=O (stereo not drawn) | -3.58% |
| CNC(=O)COc1cccc(CNC(=O)c2c(C)noc2C)c1 | -10.6% |
| O=C(NCc1ccccc1Cn1cncn1)N1CCCC1 | -12.2% |
